According to ChEMBL document CHEMBL1671627, “Increasing trends in antimicrobial resistance among clinically important anaerobes and Bacteroides fragilis isolates causing nosocomial infections: emerging resistance to carbapenems” (2008):
Values after ≈ are worked out from the molar mass of the structure shown.

Tests used:
Bacteroides fragilis [1] = test: Antibacterial activity against Bacteroides fragilis assessed as susceptible isolates by CLSI agar dilution method; format: functional
Bacteroides fragilis [2] = test: Antibacterial activity against Bacteroides fragilis assessed as resistant isolates by CLSI agar dilution method; format: functional
[3] = tested on: Bacteroides thetaiotaomicron; test: Antibacterial activity against beta-lactamase producing Bacteroides thetaiotaomicron assessed as susceptible isolates by CLSI agar dilution method; format: functional
[4] = tested on: Bacteroides thetaiotaomicron; test: Antibacterial activity against beta-lactamase producing Bacteroides thetaiotaomicron assessed as resistant isolates by CLSI agar dilution method; format: functional
Phocaeicola vulgatus [5] = test: Antibacterial activity against beta-lactamase producing Bacteroides vulgatus by CLSI agar dilution method; format: functional
Phocaeicola vulgatus [6] = test: Antibacterial activity against beta-lactamase producing Bacteroides vulgatus assessed as susceptible isolates by CLSI agar dilution method; format: functional
Phocaeicola vulgatus [7] = test: Antibacterial activity against beta-lactamase producing Bacteroides vulgatus assessed as resistant isolates by CLSI agar dilution method; format: functional
Bacteroides uniformis [8] = test: Antibacterial activity against beta-lactamase producing Bacteroides uniformis by CLSI agar dilution method; format: functional
Bacteroides uniformis [9] = test: Antibacterial activity against beta-lactamase producing Bacteroides uniformis assessed as susceptible isolates by CLSI agar dilution method; format: functional
Bacteroides uniformis [10] = test: Antibacterial activity against beta-lactamase producing Bacteroides uniformis assessed as resistant isolates by CLSI agar dilution method; format: functional
Bacteroides caccae [11] = test: Antibacterial activity against beta-lactamase producing Bacteroides caccae by CLSI agar dilution method; format: functional
Bacteroides caccae [12] = test: Antibacterial activity against beta-lactamase producing Bacteroides caccae assessed as susceptible isolates by CLSI agar dilution method; format: functional
Bacteroides caccae [13] = test: Antibacterial activity against beta-lactamase producing Bacteroides caccae assessed as resistant isolates by CLSI agar dilution method; format: functional
Fusobacterium varium [14] = test: Antibacterial activity against Fusobacterium varium by CLSI agar dilution method; format: functional
Fusobacterium nucleatum [15] = test: Antibacterial activity against Fusobacterium nucleatum by CLSI agar dilution method; format: functional
Fusobacterium mortiferum [16] = test: Antibacterial activity against Fusobacterium mortiferum by CLSI agar dilution method; format: functional
[17] = tested on: Fusobacterium necrophorum; test: Antibacterial activity against Fusobacterium necrophorum by CLSI agar dilution method; format: functional
Fusobacterium varium [18] = test: Antibacterial activity against Fusobacterium varium assessed as susceptible isolates by CLSI agar dilution method; format: functional
Fusobacterium nucleatum [19] = test: Antibacterial activity against Fusobacterium nucleatum assessed as susceptible isolates by CLSI agar dilution method; format: functional
Fusobacterium mortiferum [20] = test: Antibacterial activity against Fusobacterium mortiferum assessed as susceptible isolates by CLSI agar dilution method; format: functional
[21] = tested on: Fusobacterium necrophorum; test: Antibacterial activity against Fusobacterium necrophorum assessed as susceptible isolates by CLSI agar dilution method; format: functional
Fusobacterium varium [22] = test: Antibacterial activity against Fusobacterium varium assessed as resistant isolates by CLSI agar dilution method; format: functional
Fusobacterium nucleatum [23] = test: Antibacterial activity against Fusobacterium nucleatum assessed as resistant isolates by CLSI agar dilution method; format: functional
Fusobacterium mortiferum [24] = test: Antibacterial activity against Fusobacterium mortiferum assessed as resistant isolates by CLSI agar dilution method; format: functional
[25] = tested on: Fusobacterium necrophorum; test: Antibacterial activity against Fusobacterium necrophorum assessed as resistant isolates by CLSI agar dilution method; format: functional
Prevotella buccae [26] = test: Antibacterial activity against Prevotella buccae by CLSI agar dilution method; format: functional; conditions: Segatella buccae
Prevotella bivia [27] = test: Antibacterial activity against Prevotella bivia by CLSI agar dilution method; format: functional
Prevotella intermedia [28] = test: Antibacterial activity against Prevotella intermedia by CLSI agar dilution method; format: functional
[29] = tested on: Prevotella melaninogenica; test: Antibacterial activity against Prevotella melaninogenica by CLSI agar dilution method; format: functional
Prevotella buccae [30] = test: Antibacterial activity against Prevotella buccae assessed as susceptible isolates by CLSI agar dilution method; format: functional, Segatella buccae
Prevotella bivia [31] = test: Antibacterial activity against Prevotella bivia assessed as susceptible isolates by CLSI agar dilution method; format: functional
Prevotella intermedia [32] = test: Antibacterial activity against Prevotella intermedia assessed as susceptible isolates by CLSI agar dilution method; format: functional
[33] = tested on: Prevotella melaninogenica; test: Antibacterial activity against Prevotella melaninogenica assessed as susceptible isolates by CLSI agar dilution method; format: functional
Prevotella buccae [34] = test: Antibacterial activity against Prevotella buccae assessed as resistant isolates by CLSI agar dilution method; format: functional, Segatella buccae
Prevotella bivia [35] = test: Antibacterial activity against Prevotella bivia assessed as resistant isolates by CLSI agar dilution method; format: functional
Prevotella intermedia [36] = test: Antibacterial activity against Prevotella intermedia assessed as resistant isolates by CLSI agar dilution method; format: functional
[37] = tested on: Prevotella melaninogenica; test: Antibacterial activity against Prevotella melaninogenica assessed as resistant isolates by CLSI agar dilution method; format: functional
Veillonella parvula = test: Antibacterial activity against Veillonella parvula by CLSI agar dilution method; format: functional
Clostridium perfringens = test: microbe, parasite or virus in culture; format: functional
[38] = tested on: Clostridium paraputrificum; test: Antibacterial activity against beta-lactamase producing Clostridium paraputrificum by CLSI agar dilution method; format: functional
Clostridium septicum [39] = test: Antibacterial activity against beta-lactamase producing Clostridium septicum by CLSI agar dilution method; format: functional
Clostridium tertium [40] = test: Antibacterial activity against beta-lactamase producing Clostridium tertium by CLSI agar dilution method; format: functional
[41] = tested on: Clostridium paraputrificum; test: Antibacterial activity against beta-lactamase producing Clostridium paraputrificum assessed as susceptible isolates by CLSI agar dilution method; format: functional
Clostridium septicum [42] = test: Antibacterial activity against beta-lactamase producing Clostridium septicum assessed as susceptible isolates by CLSI agar dilution method; format: functional
Clostridium tertium [43] = test: Antibacterial activity against beta-lactamase producing Clostridium tertium assessed as susceptible isolates by CLSI agar dilution method; format: functional
Bacteroides fragilis [44] = test: Antibacterial activity against Bacteroides fragilis by CLSI agar dilution method; format: functional
[45] = tested on: Bacteroides thetaiotaomicron; test: Antibacterial activity against beta-lactamase producing Bacteroides thetaiotaomicron by CLSI agar dilution method; format: functional
[46] = tested on: Clostridium paraputrificum; test: Antibacterial activity against beta-lactamase producing Clostridium paraputrificum assessed as resistant isolates by CLSI agar dilution method; format: functional
Clostridium septicum [47] = test: Antibacterial activity against beta-lactamase producing Clostridium septicum assessed as resistant isolates by CLSI agar dilution method; format: functional
Clostridium tertium [48] = test: Antibacterial activity against beta-lactamase producing Clostridium tertium assessed as resistant isolates by CLSI agar dilution method; format: functional
[49] = tested on: Peptostreptococcus anaerobius; test: Antibacterial activity against beta-lactamase producing Peptostreptococcus anaerobius by CLSI agar dilution method; format: functional
[50] = tested on: Peptostreptococcus anaerobius; test: Antibacterial activity against beta-lactamase producing Peptostreptococcus anaerobius assessed as susceptible isolates by CLSI agar dilution method; format: functional
[51] = tested on: Peptostreptococcus anaerobius; test: Antibacterial activity against beta-lactamase producing Peptostreptococcus anaerobius assessed as resistant isolates by CLSI agar dilution method; format: functional
Parvimonas micra [52] = test: Antibacterial activity against beta-lactamase producing Micromonas micros by CLSI agar dilution method; format: functional
Parvimonas micra [53] = test: Antibacterial activity against beta-lactamase producing Micromonas micros assessed as susceptible isolates by CLSI agar dilution method; format: functional
Parvimonas micra [54] = test: Antibacterial activity against beta-lactamase producing Micromonas micros assessed as resistant isolates by CLSI agar dilution method; format: functional
[55] = tested on: Peptoniphilus asaccharolyticus; test: Antibacterial activity against beta-lactamase producing Peptoniphilus asaccharolyticus by CLSI agar dilution method; format: functional
[56] = tested on: Peptoniphilus asaccharolyticus; test: Antibacterial activity against beta-lactamase producing Peptoniphilus asaccharolyticus assessed as susceptible isolates by CLSI agar dilution method; format: functional
[57] = tested on: Peptoniphilus asaccharolyticus; test: Antibacterial activity against beta-lactamase producing Peptoniphilus asaccharolyticus assessed as resistant isolates by CLSI agar dilution method; format: functional
Finegoldia magna [58] = test: Antibacterial activity against beta-lactamase producing Finegoldia magna by CLSI agar dilution method; format: functional
Finegoldia magna [59] = test: Antibacterial activity against beta-lactamase producing Finegoldia magna assessed as susceptible isolates by CLSI agar dilution method; format: functional
Finegoldia magna [60] = test: Antibacterial activity against beta-lactamase producing Finegoldia magna assessed as resistant isolates by CLSI agar dilution method; format: functional

Compound `C[C@@H](O)[C@H]1C(=O)N2C(C(=O)O)=C(S[C@@H]3CN[C@H](C(=O)N(C)C)C3)[C@H](C)[C@H]12` [MEROPENEM] has an Activity (Bacteroides fragilis [1]) of 88%, an Activity (Bacteroides fragilis [2]) of 5% and an Activity [3] of 97%. It also gave an Activity [4] of 0%, an MIC50 (Phocaeicola vulgatus [5]) of 0.5 µg/mL (≈ 1.3 µM) and an MIC90 (Phocaeicola vulgatus [5]) of 2 µg/mL (≈ 5.22 µM). For the same compound, the Activity (Phocaeicola vulgatus [6]) was 96%, the Activity (Phocaeicola vulgatus [7]) was 4% and the MIC50 (Bacteroides uniformis [8]) was 0.5 µg/mL (≈ 1.3 µM). For the same compound, the MIC90 (Bacteroides uniformis [8]) was 2 µg/mL (≈ 5.22 µM), the Activity (Bacteroides uniformis [9]) was 96% and the Activity (Bacteroides uniformis [10]) was 4%. The MIC50 (Bacteroides caccae [11]) was 0.5 µg/mL (≈ 1.3 µM), the MIC90 (Bacteroides caccae [11]) was 2 µg/mL (≈ 5.22 µM) and the Activity (Bacteroides caccae [12]) was 96%. For the same compound, the Activity (Bacteroides caccae [13]) was 4%, the MIC50 (Fusobacterium varium [14]) was 0.06 µg/mL (≈ 0.156 µM) and the MIC90 (Fusobacterium varium [14]) was 0.12 µg/mL (≈ 0.313 µM). It also gave an MIC50 (Fusobacterium nucleatum [15]) of 0.06 µg/mL (≈ 0.156 µM), an MIC90 (Fusobacterium nucleatum [15]) of 0.12 µg/mL (≈ 0.313 µM) and an MIC50 (Fusobacterium mortiferum [16]) of 0.06 µg/mL (≈ 0.156 µM). The MIC90 (Fusobacterium mortiferum [16]) was 0.12 µg/mL (≈ 0.313 µM), the MIC50 [17] was 0.06 µg/mL (≈ 0.156 µM) and the MIC90 [17] was 0.12 µg/mL (≈ 0.313 µM). The Activity (Fusobacterium varium [18]) was 92%, the Activity (Fusobacterium nucleatum [19]) was 92% and the Activity (Fusobacterium mortiferum [20]) was 92%. It also gave an Activity [21] of 92%, an Activity (Fusobacterium varium [22]) of 8% and an Activity (Fusobacterium nucleatum [23]) of 8%. The Activity (Fusobacterium mortiferum [24]) was 8%, the Activity [25] was 8% and the MIC50 (Prevotella buccae [26]) was 0.12 µg/mL (≈ 0.313 µM). The MIC90 (Prevotella buccae [26]) was 0.25 µg/mL (≈ 0.652 µM), the MIC50 (Prevotella bivia [27]) was 0.12 µg/mL (≈ 0.313 µM) and the MIC90 (Prevotella bivia [27]) was 0.25 µg/mL (≈ 0.652 µM). It also gave an MIC50 (Prevotella intermedia [28]) of 0.12 µg/mL (≈ 0.313 µM), an MIC90 (Prevotella intermedia [28]) of 0.25 µg/mL (≈ 0.652 µM) and an MIC50 [29] of 0.12 µg/mL (≈ 0.313 µM). The MIC90 [29] was 0.25 µg/mL (≈ 0.652 µM), the Activity (Prevotella buccae [30]) was 100% and the Activity (Prevotella bivia [31]) was 100%. It also gave an Activity (Prevotella intermedia [32]) of 100%, an Activity [33] of 100% and an Activity (Prevotella buccae [34]) of 0%. For the same compound, the Activity (Prevotella bivia [35]) was 0%, the Activity (Prevotella intermedia [36]) was 0% and the Activity [37] was 0%. For the same compound, the MIC (Veillonella parvula) was 0.06 µg/mL (≈ 0.156 µM), the MIC (Clostridium perfringens) was 0.03 µg/mL (≈ 0.0782 µM) and the MIC50 (Clostridium perfringens) was 0.03 µg/mL (≈ 0.0782 µM). It also gave an MIC90 (Clostridium perfringens) of 2 µg/mL (≈ 5.22 µM), an MIC [38] of 0.03 µg/mL (≈ 0.0782 µM) and an MIC50 [38] of 0.03 µg/mL (≈ 0.0782 µM). For the same compound, the MIC90 [38] was 2 µg/mL (≈ 5.22 µM), the MIC (Clostridium septicum [39]) was 0.03 µg/mL (≈ 0.0782 µM) and the MIC50 (Clostridium septicum [39]) was 0.03 µg/mL (≈ 0.0782 µM). The MIC90 (Clostridium septicum [39]) was 2 µg/mL (≈ 5.22 µM), the MIC (Clostridium tertium [40]) was 0.03 µg/mL (≈ 0.0782 µM) and the MIC50 (Clostridium tertium [40]) was 0.03 µg/mL (≈ 0.0782 µM). For the same compound, the MIC90 (Clostridium tertium [40]) was 2 µg/mL (≈ 5.22 µM), the Activity [41] was 100% and the Activity (Clostridium septicum [42]) was 100%. The Activity (Clostridium tertium [43]) was 100%, the MIC50 (Bacteroides fragilis [44]) was 0.28 µg/mL (≈ 0.73 µM) and the MIC90 (Bacteroides fragilis [44]) was 8 µg/mL (≈ 20.9 µM). The MIC50 [45] was 0.25 µg/mL (≈ 0.652 µM), the MIC90 [45] was 2 µg/mL (≈ 5.22 µM) and the Activity [46] was 0%. The Activity (Clostridium septicum [47]) was 0%, the Activity (Clostridium tertium [48]) was 0% and the MIC50 [49] was 0.06 µg/mL (≈ 0.156 µM). The MIC90 [49] was 0.5 µg/mL (≈ 1.3 µM), the Activity [50] was 100% and the Activity [51] was 0%. The MIC50 (Parvimonas micra [52]) was 0.06 µg/mL (≈ 0.156 µM), the MIC90 (Parvimonas micra [52]) was 0.5 µg/mL (≈ 1.3 µM) and the Activity (Parvimonas micra [53]) was 100%. The Activity (Parvimonas micra [54]) was 0%, the MIC50 [55] was 0.06 µg/mL (≈ 0.156 µM) and the MIC90 [55] was 0.5 µg/mL (≈ 1.3 µM). It also gave an Activity [56] of 100%, an Activity [57] of 0% and an MIC50 (Finegoldia magna [58]) of 0.06 µg/mL (≈ 0.156 µM). The MIC90 (Finegoldia magna [58]) was 0.5 µg/mL (≈ 1.3 µM), the Activity (Finegoldia magna [59]) was 100% and the Activity (Finegoldia magna [60]) was 0%.
